Test results: patent US11427548B2 (Arvinas Operations, Inc., priority 2015, dated 2022)
Like-named read-outs stand apart in the source and are kept apart here.

Target: T1, Androgen Receptor (Homo sapiens, UniProt P10275)
T1 construct: endogenous in cells; host or cells: VCaP cells
T1 sequence (P10275 1-920): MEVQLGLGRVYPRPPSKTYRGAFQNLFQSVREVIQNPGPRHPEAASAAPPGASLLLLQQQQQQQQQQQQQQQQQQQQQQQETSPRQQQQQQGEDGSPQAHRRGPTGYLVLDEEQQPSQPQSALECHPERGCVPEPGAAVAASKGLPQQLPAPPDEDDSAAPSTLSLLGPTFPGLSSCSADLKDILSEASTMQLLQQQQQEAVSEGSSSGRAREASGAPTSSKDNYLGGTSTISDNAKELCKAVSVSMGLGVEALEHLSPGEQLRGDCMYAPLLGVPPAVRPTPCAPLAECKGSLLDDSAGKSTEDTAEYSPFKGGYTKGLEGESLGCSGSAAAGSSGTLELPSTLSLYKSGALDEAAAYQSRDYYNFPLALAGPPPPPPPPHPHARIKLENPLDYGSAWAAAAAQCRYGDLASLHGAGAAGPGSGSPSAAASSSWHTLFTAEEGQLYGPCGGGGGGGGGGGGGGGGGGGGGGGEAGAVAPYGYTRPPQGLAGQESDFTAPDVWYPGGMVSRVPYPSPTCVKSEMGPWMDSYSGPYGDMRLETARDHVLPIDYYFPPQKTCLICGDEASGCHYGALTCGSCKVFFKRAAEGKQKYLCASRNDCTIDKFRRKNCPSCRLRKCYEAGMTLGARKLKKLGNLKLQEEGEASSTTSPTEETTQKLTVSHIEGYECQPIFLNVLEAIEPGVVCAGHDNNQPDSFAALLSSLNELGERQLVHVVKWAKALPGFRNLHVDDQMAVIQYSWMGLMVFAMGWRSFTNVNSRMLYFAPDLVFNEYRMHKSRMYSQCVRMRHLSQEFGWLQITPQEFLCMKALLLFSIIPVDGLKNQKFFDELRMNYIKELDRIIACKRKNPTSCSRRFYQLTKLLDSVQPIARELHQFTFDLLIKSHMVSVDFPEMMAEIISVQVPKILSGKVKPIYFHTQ
Experiment: Androgen Receptor ELISA assay (PathScan AR ELISA) in VCaP cells: AR degradation, Dmax and DC50
Assay type: cell-based
How it was run: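 VCaP cells in phenol red-free RPMI with 5% charcoal-stripped FBS were grown at least 3 days, then given compound as 7 half-log doses in 0.1% DMSO with 0.1 nM R1881 for 24 h. Lysates went into a sandwich AR ELISA with TMB read at 450 nm.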

[1] = VCaP, highest percentage of Androgen Receptor degradation observed, VCaP cells (Table 32); read-out: VCaP Dmax (%)
[2] = concentration that caused 50% Androgen Receptor degradation, VCaP cells (Table 32); read-out: VCaP DC50
[3] = VCaP cells; Table 35; read-out: VCaP DC50
[4] = VCaP, VCaP cells; Table 35; read-out: VCaP Dmax (%)
[5] = VCaP cells; Table 36; read-out: VCaP DC50
[6] = VCaP, VCaP cells; Table 36; read-out: VCaP Dmax (%)

Cc1ncsc1-c1ccc([C@H](C)NC(=O)[C@@H]2C[C@@H](O)CN2C(=O)[C@@H](NC(=O)COCCCCOc2ccc(C(=O)N[C@H]3C(C)(C)[C@H](Oc4ccc(C#N)c(Cl)c4)C3(C)C)cc2)C(C)(C)C)cc1 [Example 167, (2S,4R)-1-[(2S)-3,3-dimethyl-2-{2-[4-(4-{[trans-3-(3-chloro-4-cyanophenoxy)-2,2,4,4-tetramethylcyclobutyl]carbamoyl}phenoxy)butoxy]acetamido}butanoyl]-4-hydroxy-N-[(1S)-1-[4-(4-methyl-1,3-thiazol-5-yl)phenyl]ethyl]pyrrolidine-2-carboxamide]
Dmax [1]: > 71% | DC50 [2]: < 50 nM

Cc1ncsc1-c1ccc(CNC(=O)[C@@H]2C[C@@H](O)CN2C(=O)[C@@H](NC(=O)COCCCCOc2ccc(-c3ccc(N4C(=S)N(c5ccc(C#N)c(C(F)(F)F)c5)C(=O)C4(C)C)cc3F)cc2)C(C)(C)C)cc1 [Example 400]
Dmax (VCaP, read-out: VCaP Dmax (%)): > 71% | DC50 (read-out: VCaP DC50; VCaP cells; Table 34): < 50 nM

Cc1ncsc1-c1ccc([C@@H](C)NC(=O)[C@@H]2C[C@@H](O)CN2C(=O)[C@@H](NC(=O)COCCCCOc2ccc(C(=O)N[C@H]3C(C)(C)[C@H](Oc4ccc(C#N)c(Cl)c4)C3(C)C)cc2)C(C)(C)C)cc1 [Example 171, (2S,4R)-1-[(2S)-3,3-dimethyl-2-{2-[4-(4-{[trans-3-(3-chloro-4-cyanophenoxy)-2,2,4,4-tetramethylcyclobutyl]carbamoyl}phenoxy)butoxy]acetamido}butanoyl]-4-hydroxy-N-[(1R)-1-[4-(4-methyl-1,3-thiazol-5-yl)phenyl]ethyl]pyrrolidine-2-carboxamide]
Dmax [1]: 26 to 50% | DC50 [2]: < 50 nM

Cc1ncoc1-c1ccc(CNC(=O)[C@@H]2C[C@@H](O)CN2C(=O)[C@@H](NC(=O)CCCOc2ccc(-c3ccc(C(=O)N[C@H]4C(C)(C)[C@H](Oc5ccc(C#N)c(Cl)c5)C4(C)C)cc3)cc2)C(C)(C)C)cc1 [Example 180]
Dmax [1]: > 71% | DC50 [2]: < 50 nM

CC(C)(C)[C@H](NC(=O)COCCOc1ccc(-c2ccc(C(=O)N[C@H]3C(C)(C)[C@H](Oc4ccc(C#N)c(Cl)c4)C3(C)C)cc2)cc1)C(=O)N1C[C@H](O)C[C@H]1C(=O)NCc1ccc(C#N)cc1 [Example 550]
DC50 [3]: < 50 nM | Dmax [4]: > 71%

CC(C)(C)[C@H](NC(=O)COCCCCCNc1ccc(C(=O)N[C@H]2C(C)(C)[C@H](Oc3ccc(C#N)c(Cl)c3)C2(C)C)cc1)C(=O)N1C[C@H](O)C[C@H]1C(=O)NCc1ccc(C#N)cc1 [Example 542]
DC50 [3]: < 50 nM | Dmax [4]: > 71%

Cc1ncsc1-c1ccc(CNC(=O)[C@@H]2C[C@@H](O)CN2C(=O)[C@@H](NC(=O)COCCCCOCCCOc2ccc(N3C(=S)N(c4ccc(C#N)c(C(F)(F)F)c4)C(=O)C3(C)C)cc2F)C(C)(C)C)cc1 [Example 53, (2S,4R)-1-[(2S)-2-(2-{4-[3-(4-{3-[4-cyano-3-(trifluoromethyl)phenyl]-5,5-dimethyl-4-oxo-2-sulfanylideneimidazolidin-1-yl}-2-fluorophenoxy)propoxy]butoxy}acetamido)-3,3-dimethylbutanoyl]-4-hydroxy-N-{[4-(4-methyl-1,3-thiazol-5-yl)phenyl]methyl}pyrrolidine-2-carboxamide]
Dmax (VCaP, read-out: VCaP Dmax (%)): > 71% | DC50 (read-out: VCaP DC50; concentration that caused 50% Androgen Receptor degradation, VCaP cells): 51 to 500 nM

Cc1ncsc1-c1ccc([C@H](C)NC(=O)[C@@H]2C[C@@H](O)CN2C(=O)[C@@H](NC(=O)COCCN2CCN(c3cnc(C(=O)N[C@H]4C(C)(C)[C@H](Oc5ccc(C#N)c(C(F)(F)F)c5)C4(C)C)cn3)CC2)C(C)(C)C)cc1 [Example 689, N-((1r,3r)-3-(4-cyano-3-(trifluoromethyl)phenoxy)-2,2,4,4-tetramethylcyclobutyl)-5-(4-(2-(2-(((S)-1-((2S,4R)-4-hydroxy-2-(((S)-1-(4-(4-methylthiazol-5-yl)phenyl)ethyl)carbam-oyl)pyrrolidin-1-yl)-3,3-dimethyl-1-oxobutan-2-yl)amino)-2-oxoethoxy)ethyl)pipera-zin-1-yl)pyrazine-2-carboxamide]
DC50 [5]: < 50 nM | Dmax [6]: > 71%

Cc1ncsc1-c1ccc(C(CO)NC(=O)C2C[C@@H](O)CN2C(=O)[C@@H](NC(=O)COCCN2CCN(c3ccc(C(=O)N[C@H]4C(C)(C)[C@H](Oc5ccc(C#N)c(Cl)c5)C4(C)C)cn3)CC2)C(C)(C)C)cc1 (stereo partly drawn) [Example 671, N-((1r,3r)-3-(3-chloro-4-cyanophenoxy)-2,2,4,4-tetramethylcyclobutyl)-6-(4-(2-(2-(((S)-1-((2S,4R)-4-hydroxy-2-((2-hydroxy-1-(4-(4-methylthiazol-5-yl)phenyl)ethyl)carbam-oyl)pyrrolidin-1-yl)-3,3-dimethyl-1-oxobutan-2-yl)amino)-2-oxoethoxy)ethyl)pipera-zin-1-yl)nicotinamide]
DC50 [5]: < 50 nM | Dmax [6]: > 71%

Cc1ncsc1-c1ccc(CNC(=O)[C@@H]2C[C@@H](O)CN2C(=O)[C@@H](NC(=O)COCCCC[C@H](C)Oc2ccc(C(=O)N[C@H]3C(C)(C)[C@H](Oc4ccc(C#N)c(Cl)c4)C3(C)C)cc2)C(C)(C)C)cc1 [Example 161, (2S,4R)-1-[(2S)-3,3-dimethyl-2-(2-{[(5R)-5-(4-{[trans-3-(3-chloro-4-cyanophenoxy)-2,2,4,4-tetramethylcyclobutyl]carbamoyl}phen-oxy)hexyl]oxy}acetamido)butanoyl]-4-hydroxy-N-{[4-(4-methyl-1,3-thiazol-5-yl)phenyl]methyl}pyrrolidine-2-carboxamide]
Dmax [1]: > 71% | DC50 [2]: < 50 nM

Cc1ncsc1-c1ccc([C@H](C)NC(=O)C2C[C@@H](O)CN2C(=O)[C@@H](NC(=O)CCCCCCc2ccc(C(=O)N[C@H]3C(C)(C)[C@H](Oc4ccc(C#N)c(Cl)c4)C3(C)C)cc2)C(C)(C)C)cc1 (stereo partly drawn) [Example 749, (2S,4R)-1-((S)-2-(7-(4-(((1r,3r)-3-(3-chloro-4-cyanophenoxy)-2,2,4,4-tetramethylcyclobutyl)carbamoyl)phenyl)heptan-amido)-3,3-dimethylbutanoyl)-4-hydroxy-N-((S)-1-(4-(4-methylthiazol-5-yl)phenyl)ethyl)pyrrolidine-2-carboxamide]
DC50 [5]: < 50 nM | Dmax [6]: > 71%

Cc1ncsc1-c1ccc([C@H](C)NC(=O)[C@@H]2C[C@@H](O)CN2C(=O)[C@@H](NC(=O)COCCCCCNc2ccc(C(=O)N[C@H]3C(C)(C)[C@H](Oc4ccc(C#N)c(Cl)c4)C3(C)C)nn2)C(C)(C)C)cc1 [Example 607, N-((1r,3r)-3-(3-chloro-4-cyanophenoxy)-2,2,4,4-tetramethylcyclobutyl)-6-((5-(2-(((S)-1-((2S,4R)-4-hydroxy-2-(((S)-1-(4-(4-methylthiazol-5-yl)phenyl)ethyl)carbam-oyl)pyrrolidin-1-yl)-3,3-dimethyl-1-oxobutan-2-yl)amino)-2-oxoethoxy)pentyl)amino) pyridazine-3-carboxamide]
DC50 [5]: > 501 nM | Dmax (VCaP, read-out: VCaP Dmax (%), VCaP cells; Table 36): 26 to 50%

Cc1ncsc1-c1ccc([C@H](CN)NC(=O)[C@@H]2C[C@@H](O)CN2C(=O)[C@@H](NC(=O)COCCCCCOc2ccc(C(=O)N[C@H]3C(C)(C)[C@H](Oc4ccc(C#N)c(Cl)c4)C3(C)C)cc2)C(C)(C)C)cc1 [Example 475]
DC50 [3]: < 50 nM | Dmax [4]: > 71%

Cc1ncsc1-c1ccc([C@H](C)NC(=O)[C@@H]2C[C@@H](O)CN2C(=O)[C@@H](C(C)C)n2cc(OCCCOCCC(O)CCOc3ccc(N4C(=S)N(c5ccc(C#N)c(C(F)(F)F)c5)C(=O)C4(C)C)cc3)cn2)cc1 (stereo partly drawn) [Example 418]
Dmax (VCaP, read-out: VCaP Dmax (%)): 51 to 70% | DC50 (read-out: VCaP DC50; VCaP cells; Table 35): < 50 nM

Cc1ncsc1-c1ccc([C@H](C)NC(=O)[C@@H]2C[C@@H](O)CN2C(=O)[C@@H](NC(=O)CN2CCN(CC3(CNc4ccc(C(=O)N[C@H]5C(C)(C)[C@H](Oc6ccc(C#N)c(C(F)(F)F)c6)C5(C)C)cc4)COC3)CC2)C(C)(C)C)cc1 [Example 686, (2S,4R)-1-((S)-2-(2-(4-((3-(((4-(((1r,3r)-3-(4-cyano-3-(trifluoromethyl)phenoxy)-2,2,4,4-tetramethylcyclobutyl)carbamoyl)phenyl)amino)methyl)oxetan-3-yl)methyl)piperazin-1-yl)acetamido)-3,3-dimethylbutanoyl)-4-hydroxy-N-((S)-1-(4-(4-methylthiazol-5-yl)phenyl)ethyl)pyrrolidine-2-carboxamide]
Dmax (VCaP, read-out: VCaP Dmax (%)): 26 to 50% | DC50 (read-out: VCaP DC50; VCaP cells; Table 36): < 50 nM
